# Results taken from paper PMC5678437, “A new antagonist for CCR4 attenuates allergic lung inflammation in a mouse model of asthma” (Scientific Reports, 2017).
# How the values were obtained:
# CCR4 = target: T1, CCR4 (Homo sapiens, UniProt P51679); assay: Chemotaxis inhibition assay, pcDI-CCR4-transfected HEK293 cells; format: cell-based; conditions: 1 μM compound, 30 min pretreatment; C27 100 ng/ml; compared with compound 22 and compound 6b
# T1 construct: expressed in transfected cells; cell membrane extract
# T1 sequence (P51679 1-360): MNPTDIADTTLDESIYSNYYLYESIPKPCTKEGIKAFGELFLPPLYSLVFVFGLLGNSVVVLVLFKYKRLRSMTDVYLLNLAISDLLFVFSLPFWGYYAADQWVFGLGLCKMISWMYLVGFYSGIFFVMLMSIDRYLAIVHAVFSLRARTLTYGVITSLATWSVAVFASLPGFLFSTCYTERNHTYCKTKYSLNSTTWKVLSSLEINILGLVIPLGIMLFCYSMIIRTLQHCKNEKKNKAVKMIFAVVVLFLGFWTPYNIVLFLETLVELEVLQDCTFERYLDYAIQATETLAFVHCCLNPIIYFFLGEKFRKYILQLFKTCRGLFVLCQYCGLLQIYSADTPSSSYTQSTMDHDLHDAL
# Protocol: Chemokine receptor expression plasmid was transiently transfected into HEK293 by electroporation at 120 V for 20 ms, using an electric pulse generator (Electro Square Porator ECM 830; BTX, San Diego, CA). Forty-eight-well micro chemotaxis chambers (Neutroprobe, Bethesda, MD, USA) were used in this assay. Forty-eight hours later, the cells were pretreated with compounds or compounds dissolved medium (1‰ DMSO) for 30 min at 37 °C prior to stimulation with chemoattractant. Chemoattractant diluted in RPMI 1640 medium supplemented with 0.1% bovine serum albumin (BSA) was placed in the lower chambers (27.5 μl/well). In these assays, CCL22 and CCL17 (Peprotech, Rocky Hill, NJ, USA) were used as chemoattractant and the final concentrations of chemoattractant were 10 ng/ml and 80 ng/ml respectively. The pcDI-CCR4-transfected HEK293 cells were resuspended in the same medium at a density of 1 × 10^6 cells/ml and added to the upper chambers (55 μl/well). […] Cells that migrated into each filter were counted in five randomly selected high-power fields (400 × ) per well. […] The chemotactic index was calculated and expressed as the number of cells that migrated to the sample over the number of cells that migrated to the control medium.
# [1] = tested on: OVA-induced asthmatic mice; assay: Airway hyperresponsiveness to aerosolized methacholine in OVA-induced asthmatic mice; format: in vivo, BALB/c mice; conditions: days 24-26, 24 h after final OVA challenge
# Protocol: (§1) Male BALB/c 6 week old mice were purchased from the Experimental Animal Center of Zhejiang University. All mice were raised in a specific pathogen-free animal facility. All animal experiments were carried out according to the guidelines for the care and use of laboratory animals and were approved by the ethics committee of Zhejiang University and Peking University, China.
# (§2) Mice were sensitized and challenged with chicken egg OVA (sigma-Aldrich, St Louis, MO, USA) as described in details previously. Briefly, after sensitized by intraperitoneal injection of 100 μl (80 μg) OVA in 100 μl alum (Pierce, Rockford, IL, USA) on days 0 and 14, mice were exposure to 1% OVA aerosols for 40 min on days 24–26. Control mice were injected intraperitoneally with saline and exposed to saline aerosols.
# Compound 8a was dissolved in saline with DMSO (0.5%). Half an hour before each OVA challenge, the groups of mice treated with various doses of compound 8a (0.2, 1, 5 mg) inhaled aerosolized compound 8a for 45 min on days 24–26. Compound 8a aerosols were produced by using a Plexiglas chamber and ultrasonic nebulizer. While the budesonide (BUD) group were administered with 5 mg budesonide, and the vehicle group were treated with compound-dissolved vehicle. The Saline was treated as the control.
# Twenty-four hours after the last challenge, mice were anesthetized and tracheotomized with a cannula, then ventilated at a fixed breathing rate. Once being stabilized, mice were challenged via the airways with saline or increasing concentrations of Mch (1, 2, 4, 8, 16 mg/ml) by nebulization. Airway resistance was measured by FinePointe Series RC Sites (Buxco Research System). Changes in airway resistance were calculated for each Mch concentration.
# [2] = tested on: OVA-induced asthmatic mice; assay: Lung histology (H&E) inflammation score in OVA-induced asthmatic mice; format: in vivo, BALB/c mice; conditions: 5 mg inhaled aerosol; vs OVA mice treated with vehicle
# Protocol: as §1, §2
# Compound 8a was dissolved in saline with DMSO (0.5%). Half an hour before each OVA challenge, the groups of mice treated with various doses of compound 8a (0.2, 1, 5 mg) inhaled aerosolized compound 8a for 45 min on days 24–26. Compound 8a aerosols were produced by using a Plexiglas chamber and ultrasonic nebulizer. […]
# After sacrificed, the lungs were fixed in formalin overnight. […] Inflammation was scored according to published guidelines. And PAS-stained goblet cells in airway epithelium were quantified as described previously.
smiles,measurement,setting,value
"O=C(C1CCCCN1)N1CCN(c2nc(Cl)cc(NCc3ccc(Cl)cc3Cl)n2)CC1 (centres unmarked) [compound 8a, {4-[4-Chloro-6-(2,4-dichloro-benzylamino)-pyrimidin-2-yl]-piperazin-1-yl}-piperidin-2-yl-methanone]",inhibition of chemotaxis of CCR4 transfected HEK293 to C27,CCR4,more positive efficiency
same,AHR to methacholine compared with asthmatic mice treated with vehicle,[1]; 0.2 mg inhaled aerosol,significantly lower
same,AHR to methacholine compared with asthmatic mice treated with vehicle,[1]; 1 mg inhaled aerosol,significantly lower
same,AHR to methacholine compared with asthmatic mice treated with vehicle,[1]; 5 mg inhaled aerosol,significantly lower
same,peribronchial and perivascular inflammation (H&E histology),[2],comparable inhibitory effect
